The molecules below were run on SR (assay: Growth inhibition of human SR cells assessed as cell growth at 0.1 uM incubated for 48 hrs by sulforhodamine B assay relative to control). Conditions: read-out: Activity.
Type: functional
In the case of COc1cc(Cl)cc(-c2nn(-c3cccc(NC(=O)Nc4cc(C(F)(F)F)cc(C(F)(F)F)c4)c3)cc2-c2ccncc2)c1, the growth at 0.1 µM is reported as 92%.

What follows are molecules tested on MDA-MB-468 (assay: Growth inhibition of human MDA-MB-468 cells incubated for 48 hrs by sulforhodamine B assay). Conditions: MDA-MB-468, 48 h.
Type: functional, cell-based
Work on COc1cc(Cl)cc(-c2nn(-c3cccc(NC(=O)Nc4cc(C(F)(F)F)cc(C(F)(F)F)c4)c3)cc2-c2ccncc2)c1 yielded an IC50 of 340 nM.

Same assay, conditions: MDA-MB-468, 48 h, read-out: GI50
Molecule COc1cc(Cl)cc(-c2nn(-c3cccc(NC(=O)Nc4cc(C(F)(F)F)cc(C(F)(F)F)c4)c3)cc2-c2ccncc2)c1 has a GI50 of 336 nM.

Same assay, conditions: MDA-MB-468, 48 h, read-out: LC50 (the source's name)
COc1cc(Cl)cc(-c2nn(-c3cccc(NC(=O)Nc4cc(C(F)(F)F)cc(C(F)(F)F)c4)c3)cc2-c2ccncc2)c1 gave a CC50 of over 100000 nM.

Same assay, conditions: MDA-MB-468, 48 h, read-out: TGI
In the case of COc1cc(Cl)cc(-c2nn(-c3cccc(NC(=O)Nc4cc(C(F)(F)F)cc(C(F)(F)F)c4)c3)cc2-c2ccncc2)c1, the TGI is reported as 2520 nM.

Same assay, conditions: MDA-MB-468, 48 h, read-out: pGI50 (converted)
Work on COc1cc(Cl)cc(-c2nn(-c3cccc(NC(=O)Nc4cc(C(F)(F)F)cc(C(F)(F)F)c4)c3)cc2-c2ccncc2)c1 yielded a GI50 of 339 nM.

Same assay, conditions: MDA-MB-468, 48 h, read-out: pLC50 (the source's name) (converted)
COc1cc(Cl)cc(-c2nn(-c3cccc(NC(=O)Nc4cc(C(F)(F)F)cc(C(F)(F)F)c4)c3)cc2-c2ccncc2)c1 showed a CC50 of over 100000 nM.

Same assay, conditions: MDA-MB-468, 48 h, read-out: pTGI (converted)
COc1cc(Cl)cc(-c2nn(-c3cccc(NC(=O)Nc4cc(C(F)(F)F)cc(C(F)(F)F)c4)c3)cc2-c2ccncc2)c1 gave a TGI of 2510 nM.

These molecules were tested on SK-OV-3 (assay: Growth inhibition of human SKOV3 cells assessed as cell growth at 100 uM incubated for 48 hrs by sulforhodamine B assay relative to control). Conditions: SK-OV-3, 48 h, read-out: Activity.
Type: functional
With COc1cc(Cl)cc(-c2nn(-c3cccc(NC(=O)Nc4cc(C(F)(F)F)cc(C(F)(F)F)c4)c3)cc2-c2ccncc2)c1 the growth at 100 µM was -73%.

These molecules were tested on UACC-257 (assay: Growth inhibition of human UACC257 cells assessed as cell growth at 0.01 uM incubated for 48 hrs by sulforhodamine B assay relative to control). Conditions: UACC-257, 48 h, read-out: Activity.
Type: functional
Molecule COc1cc(Cl)cc(-c2nn(-c3cccc(NC(=O)Nc4cc(C(F)(F)F)cc(C(F)(F)F)c4)c3)cc2-c2ccncc2)c1 has a growth at 0.01 µM of 96%.

The molecules below were run on IGROV-1 (assay: Growth inhibition of human IGROV1 cells assessed as cell growth at 0.01 uM incubated for 48 hrs by sulforhodamine B assay relative to control). Conditions: IGROV-1, 48 h, read-out: Activity.
Type: functional
COc1cc(Cl)cc(-c2nn(-c3cccc(NC(=O)Nc4cc(C(F)(F)F)cc(C(F)(F)F)c4)c3)cc2-c2ccncc2)c1 gave a growth at 0.01 µM of 103%.

Each molecule was assayed on SK-MEL-2 (assay: Growth inhibition of human SK-MEL-2 cells assessed as cell growth at 1 uM incubated for 48 hrs by sulforhodamine B assay relative to control). Conditions: SK-MEL-2, 48 h, read-out: Activity.
Type: functional
With COc1cc(Cl)cc(-c2nn(-c3cccc(NC(=O)Nc4cc(C(F)(F)F)cc(C(F)(F)F)c4)c3)cc2-c2ccncc2)c1 the growth at 1 µM was 40%.

The molecules below were run on CAKI-1 (assay: Growth inhibition of human Caki1 cells assessed as cell growth at 1 uM incubated for 48 hrs by sulforhodamine B assay relative to control). Conditions: CAKI-1, 48 h, read-out: Activity.
Type: functional
COc1cc(Cl)cc(-c2nn(-c3cccc(NC(=O)Nc4cc(C(F)(F)F)cc(C(F)(F)F)c4)c3)cc2-c2ccncc2)c1 gave a growth at 1 µM of 22%.

These molecules were tested on SN12C (assay: Growth inhibition of human SN12C cells assessed as cell growth at 100 uM incubated for 48 hrs by sulforhodamine B assay relative to control). Conditions: read-out: Activity.
Type: functional
Molecule COc1cc(Cl)cc(-c2nn(-c3cccc(NC(=O)Nc4cc(C(F)(F)F)cc(C(F)(F)F)c4)c3)cc2-c2ccncc2)c1 has a growth at 100 µM of -61%.

Each molecule was assayed on HCT-116 (assay: Growth inhibition of human HCT116 cells assessed as cell growth at 0.01 uM incubated for 48 hrs by sulforhodamine B assay relative to control). Conditions: HCT-116, 48 h, read-out: Activity.
Type: functional
COc1cc(Cl)cc(-c2nn(-c3cccc(NC(=O)Nc4cc(C(F)(F)F)cc(C(F)(F)F)c4)c3)cc2-c2ccncc2)c1 was tested, and the growth at 0.01 µM was 102%.

The molecules below were run on COLO 205 (assay: Growth inhibition of human COLO205 cells assessed as cell growth at 0.1 uM incubated for 48 hrs by sulforhodamine B assay relative to control). Conditions: COLO 205, 48 h, read-out: Activity.
Type: functional
Work on COc1cc(Cl)cc(-c2nn(-c3cccc(NC(=O)Nc4cc(C(F)(F)F)cc(C(F)(F)F)c4)c3)cc2-c2ccncc2)c1 yielded a growth at 0.1 µM of 98%.

These molecules were tested on T47D (assay: Growth inhibition of human T47D cells assessed as cell growth at 1 uM incubated for 48 hrs by sulforhodamine B assay relative to control). Conditions: read-out: Activity.
Type: functional
In the case of COc1cc(Cl)cc(-c2nn(-c3cccc(NC(=O)Nc4cc(C(F)(F)F)cc(C(F)(F)F)c4)c3)cc2-c2ccncc2)c1, the growth at 1 µM is reported as 15%.

These molecules were tested on CCRF-CEM (assay: Growth inhibition of human CCRF-CEM cells assessed as cell growth at 0.1 uM incubated for 48 hrs by sulforhodamine B assay relative to control). Conditions: read-out: Activity.
Type: functional
For COc1cc(Cl)cc(-c2nn(-c3cccc(NC(=O)Nc4cc(C(F)(F)F)cc(C(F)(F)F)c4)c3)cc2-c2ccncc2)c1, the growth at 0.1 µM was 84%.

These molecules were tested on NCI-H460 (assay: Growth inhibition of human NCI-H460 cells assessed as cell growth at 1 uM incubated for 48 hrs by sulforhodamine B assay relative to control). Conditions: NCI-H460, 48 h, read-out: Activity.
Type: functional
With COc1cc(Cl)cc(-c2nn(-c3cccc(NC(=O)Nc4cc(C(F)(F)F)cc(C(F)(F)F)c4)c3)cc2-c2ccncc2)c1 the growth at 1 µM was 13%.

What follows are molecules tested on ACHN (assay: Growth inhibition of human ACHN cells assessed as cell growth at 100 uM incubated for 48 hrs by sulforhodamine B assay relative to control). Conditions: read-out: Activity.
Type: functional
For COc1cc(Cl)cc(-c2nn(-c3cccc(NC(=O)Nc4cc(C(F)(F)F)cc(C(F)(F)F)c4)c3)cc2-c2ccncc2)c1, the growth at 100 µM was -38%.

The molecules below were run on NCI-H226 (assay: Growth inhibition of human NCI-H226 cells assessed as cell growth at 1 uM incubated for 48 hrs by sulforhodamine B assay relative to control). Conditions: NCI-H226, 48 h, read-out: Activity.
Type: functional
COc1cc(Cl)cc(-c2nn(-c3cccc(NC(=O)Nc4cc(C(F)(F)F)cc(C(F)(F)F)c4)c3)cc2-c2ccncc2)c1 gave a growth at 1 µM of 41%.

What follows are molecules tested on MDA-MB-435 (assay: Growth inhibition of human MDA-MB-435 cells incubated for 48 hrs by sulforhodamine B assay). Conditions: MDA-MB-435, 48 h.
Type: functional, cell-based
COc1cc(Cl)cc(-c2nn(-c3cccc(NC(=O)Nc4cc(C(F)(F)F)cc(C(F)(F)F)c4)c3)cc2-c2ccncc2)c1 showed an IC50 of 430 nM.

Same assay, conditions: MDA-MB-435, 48 h, read-out: GI50
For COc1cc(Cl)cc(-c2nn(-c3cccc(NC(=O)Nc4cc(C(F)(F)F)cc(C(F)(F)F)c4)c3)cc2-c2ccncc2)c1, the GI50 was 425 nM.

Same assay, conditions: MDA-MB-435, 48 h, read-out: LC50
With COc1cc(Cl)cc(-c2nn(-c3cccc(NC(=O)Nc4cc(C(F)(F)F)cc(C(F)(F)F)c4)c3)cc2-c2ccncc2)c1 the LC50 was 11.5 nM.
